# In patent US6706740B2, “Fungicidal heterocyclic aromatic amides and their compositions, methods of use and preparation” (Dow AgroSciences LLC, priority 1999, dated 2004):
# Read-outs that look alike come from different tables or passages of the source.
# How the values were obtained:
# [1] = tested on: Magnaporthe grisea (Pyricularia oryzae—PYRIOR); assay: microbe, parasite or virus in culture; type: cell-based; details: Pyricularia oryzae, read-out: PYRIOR in vitro Growth Inhibition
# [2] = tested on: Rhizoctonia solani (RHIZSO); assay: microbe, parasite or virus in culture; type: cell-based; details: Rhizoctonia solani, read-out: RHIZSO in vitro Growth Inhibition
# [3] = tested on: Mycosphaerella graminicola (Septoria tritici—SEPTTR); assay: In vitro fungal growth inhibition, Mycosphaerella graminicola (SEPTTR); type: cell-based; details: Zymoseptoria tritici, read-out: SEPTTR in vitro Growth Inhibition
# [4] = tested on: Stagonospora nodorum (Leptosphaeria nodorum—LEPTNO); assay: In vitro fungal growth inhibition, Stagonospora nodorum (LEPTNO); type: cell-based; details: Leptosphaeria, read-out: LEPTNO in vitro Growth Inhibition
# Ustilago maydis (USTIMA) = assay: microbe, parasite or virus in culture; type: cell-based; details: Mycosarcoma maydis, read-out: USTIMA in vitro Growth Inhibition
# [5] = tested on: Phytophthora infestans (PHYTIN); assay: microbe, parasite or virus in culture; type: cell-based; details: Phytophthora infestans, read-out: PHYTIN in vitro Growth Inhibition
# [6] = tested on: Phytophthora infestans—PHYTIN; assay: whole plant or invertebrate; type: in vivo; details: Phytophthora, in Solanum lycopersicum, 24 h, read-out: PHYTIN in vivo 1 Day Protectant
# [7] = tested on: Puccinia recondita—PUCCRT; assay: Brown Rust of Wheat, in vivo whole plant, 24 Hour Protectant; details: Puccinia, control of fungal infection vs untreated plants, read-out: PUCCRT in vivo 1 Day Protectant
# Erysiphe graminis—ERYSGT = assay: Powdery Mildew of Wheat, in vivo whole plant, 24 Hour Protectant; details: Erysiphe, control of fungal infection vs untreated plants, read-out: ERYSGT in vivo 1 Day Protectant
# Septoria tritici—SEPTTR = assay: Leaf Blotch of Wheat, in vivo whole plant, 24 Hour Protectant; details: Zymoseptoria tritici, 24 h, control of fungal infection vs untreated plants, read-out: SEPTTR in vivo 1 Day Protectant
# [8] = tested on: Leptosphaeria nodorum—LEPTNO; assay: Glume Blotch of Wheat, in vivo whole plant, 24 Hour Protectant; details: control of fungal infection vs untreated plants; for pest or weed control at 100 ppm: Leptosphaeria, read-out: LEPTNO in vivo 1 Day Protectant
# [9] = wheat plants sprayed at 100 ppm, inoculated after 24 hours
# [10] = 100 ppm spray, wheat, 24 hour protectant
# [11] = 100 ppm spray, 24 hour protectant, wheat
Compound,inhibition at 25 ppm [1],inhibition at 25 ppm [2],inhibition at 25 ppm ([3]; 25 ppm in the growth medium),inhibition at 25 ppm ([4]; 25 ppm in the growth medium),inhibition at 25 ppm (Ustilago maydis (USTIMA)),inhibition at 25 ppm [5],pest or weed control at 100 ppm [6],"pest or weed control at 100 ppm [7, 9]",pest or weed control at 100 ppm (Erysiphe graminis—ERYSGT; [9]),pest or weed control at 100 ppm (Septoria tritici—SEPTTR; [9]),"pest or weed control at 100 ppm [8, 9]",melting point,inhibition at 25 ppm ([3]; 25 ppm in growth medium),inhibition at 25 ppm ([4]; 25 ppm in growth medium),further results
CC1(C)CC(NC(=O)c2nccnc2O)CC(C)(C)C1 [Compound 533],< 80%,< 80%,< 80%,< 80%,< 80%,< 80%,25 to 74%,25 to 74%,< 25%,25 to 74%,25 to 74%,248 to 250 °C (dec.),–,–,–
COc1ccnc(C(=O)N[C@H]2COC(=O)[C@H](Cc3ccccc3)[C@@H](OC(C)=O)[C@H](C)OC2=O)c1O [Compound 385],< 80%,< 80%,–,–,< 80%,< 80%,25 to 74%,–,–,–,–,194 to 196 °C,> 80%,> 80%,"pest or weed control at 100 ppm [7, 10]: 25 to 74%; pest or weed control at 100 ppm (Erysiphe graminis—ERYSGT; [10]): < 25%; pest or weed control at 100 ppm (Septoria tritici—SEPTTR; [10]): 25 to 74%; LEPTNO in vivo 1 Day Protectant [8, 10]: + +"
CC(=O)Oc1cccnc1C(=O)NC1CCC(OC(C)=O)CC1 (stereo not drawn) [Compound 564],< 80%,< 80%,< 80%,< 80%,< 80%,< 80%,< 25%,< 25%,< 25%,< 25%,25 to 74%,158 to 161 °C,–,–,–
Cc1nc(O)c(C(=O)N[C@H]2COC(=O)[C@H](Cc3ccccc3)[C@@H](OC(=O)C(C)C)[C@H](C)OC2=O)nc1C [Compound 536],< 80%,< 80%,> 80%,< 80%,< 80%,< 80%,< 25%,25 to 74%,< 25%,25 to 74%,–,80 to 83 °C,–,–,"LEPTNO in vivo 1 Day Protectant [8, 9]: + +"
COc1ccnc(C(=O)NC2CCN(Cc3ccc(C)cc3)CC2)c1O [Compound 306],< 80%,< 80%,–,–,< 80%,< 80%,< 25%,–,–,–,–,150 to 152 °C,< 80%,< 80%,"pest or weed control at 100 ppm [7, 11]: < 25%; pest or weed control at 100 ppm (Erysiphe graminis—ERYSGT; [11]): < 25%; pest or weed control at 100 ppm (Septoria tritici—SEPTTR; [11]): 25 to 74%; pest or weed control at 100 ppm [8, 11]: < 25%"
COc1ccc(C(C)NC(=O)c2nc(Br)ccc2O)cc1 (stereo not drawn) [Compound 486],> 80%,< 80%,< 80%,< 80%,< 80%,< 80%,< 25%,< 25%,< 25%,< 25%,< 25%,111 to 113 °C,–,–,–
CCOc1ccnc(C(=O)Nc2ccc(Oc3cccc(C(F)(F)F)c3)cc2)c1O [Compound 476],< 80%,< 80%,< 80%,< 80%,< 80%,< 80%,< 25%,< 25%,< 25%,< 25%,25 to 74%,118 to 121 °C,–,–,–
CC1(C)CC(NC(=O)c2cnccc2O)CC(C)(C)C1 [Compound 502],< 80%,< 80%,< 80%,< 80%,< 80%,< 80%,< 25%,25 to 74%,< 25%,25 to 74%,25 to 74%,232 to 235 °C (dec.),–,–,–
CCOc1ccnc(C(=O)NC2COC(=O)[C@H](Cc3ccccc3)[C@@H](OC(=O)C(C)C)[C@H](C)OC2=O)c1O (stereo partly drawn) [Compound 475],> 80%,< 80%,> 80%,> 80%,< 80%,< 80%,< 25%,25 to 74%,< 25%,25 to 74%,–,168 to 172 °C,–,–,"LEPTNO in vivo 1 Day Protectant [8, 9]: + +"
COc1ccnc(C(=O)Nc2ccc(Oc3cccc(C(F)(F)F)c3)nc2)c1O [Compound 471],< 80%,< 80%,< 80%,> 80%,< 80%,< 80%,< 25%,25 to 74%,< 25%,25 to 74%,25 to 74%,193 to 195 °C,–,–,–
O=C(Nc1ccc(Oc2ccccc2)cc1)c1cccnc1O [Compound 522],< 80%,< 80%,< 80%,< 80%,< 80%,< 80%,< 25%,< 25%,< 25%,< 25%,–,223 to 224 °C,–,–,"LEPTNO in vivo 1 Day Protectant [8, 9]: + +"
CC(C)C(=O)O[C@H]1[C@H](C)OC(=O)[C@@H](NC(=O)c2nc3ccccc3cc2O)COC(=O)[C@@H]1Cc1ccccc1 [Compound 562],< 80%,< 80%,< 80%,< 80%,< 80%,< 80%,< 25%,< 25%,25 to 74%,25 to 74%,< 25%,163 to 165 °C,–,–,–
COc1ccnc(C(=O)N[C@H]2COC(=O)[C@H](Cc3ccccc3)[C@@H](OC(=O)c3ccccc3)[C@H](C)OC2=O)c1O [Compound 394],< 80%,< 80%,–,–,< 80%,< 80%,< 25%,–,–,–,–,181 to 185 °C,> 80%,> 80%,"pest or weed control at 100 ppm [7, 10]: 25 to 74%; pest or weed control at 100 ppm (Erysiphe graminis—ERYSGT; [10]): < 25%; pest or weed control at 100 ppm (Septoria tritici—SEPTTR; [10]): 25 to 74%; LEPTNO in vivo 1 Day Protectant [8, 10]: + +"
CC(NC(=O)c1ncccc1O)c1ccccc1 (stereo not drawn) [Compound 229],> 80%,< 80%,–,–,< 80%,< 80%,< 25%,–,–,–,–,89 to 91 °C,> 80%,< 80%,"pest or weed control at 100 ppm [7, 11]: < 25%; pest or weed control at 100 ppm (Erysiphe graminis—ERYSGT; [11]): < 25%; pest or weed control at 100 ppm (Septoria tritici—SEPTTR; [11]): < 25%; pest or weed control at 100 ppm [8, 11]: < 25%"
COc1ccnc(C(=O)NC(C)c2ccc(Cl)cc2)c1O (stereo not drawn) [Compound 246],< 80%,< 80%,–,–,< 80%,< 80%,< 25%,–,–,–,–,140 to 142 °C,< 80%,< 80%,"pest or weed control at 100 ppm [7, 11]: < 25%; pest or weed control at 100 ppm (Erysiphe graminis—ERYSGT; [11]): 25 to 74%; pest or weed control at 100 ppm (Septoria tritici—SEPTTR; [11]): 25 to 74%; LEPTNO in vivo 1 Day Protectant [8, 11]: + +"
